{"source": "patent US20040038855A1", "about": "(priority 1999, published 2004)", "key": {"human MCH1 receptor [1]": {"biological_target": "T1, human MCH1 receptor (Homo sapiens, UniProt Q99705)", "T1 sequence (Q99705 whole entry)": "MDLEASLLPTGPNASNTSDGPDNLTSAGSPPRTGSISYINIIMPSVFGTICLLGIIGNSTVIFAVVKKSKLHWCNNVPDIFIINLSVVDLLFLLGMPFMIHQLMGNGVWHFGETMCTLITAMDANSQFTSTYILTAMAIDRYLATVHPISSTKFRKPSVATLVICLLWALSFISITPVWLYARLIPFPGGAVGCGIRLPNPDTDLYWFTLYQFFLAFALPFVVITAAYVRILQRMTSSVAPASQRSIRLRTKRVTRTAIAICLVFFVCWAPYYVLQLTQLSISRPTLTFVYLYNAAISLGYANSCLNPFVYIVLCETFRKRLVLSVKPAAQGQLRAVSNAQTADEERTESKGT", "assay_type": "cell-based", "design": "expressed in transfected cells; host or cells: COS-7", "conditions": "linear regression, r^2=0.94", "experimental": "Guidelines for cell preparation and assay of the second messenger inositol phosphate (IP) are described below for a typical protocol involving transiently transfected Cos-7 cells; For a 96 well microplate format assay, cells are plated at 70,000 cells per well and allowed to incubate for 24 hours after the transfection procedure. The cells are then labeled with 0.5 μCi [^3H]myo-inositol per micro-well over night at 37° C., 5% CO2. Immediately before the assay, the medium is removed and replaced with 90 μl PBS containing 10 mM LiCl. The plates are then incubated for 15 minutes at 37° C., […]. Following the incubation, the transfectants are challenged with agonist (10 μl/well; 10× concentration) for 30 minutes at 37° C., 5% CO2. The challenge is terminated and the cells lysed by the addition of 100 μl cold 5% v/v trichloroacetic acid (TCA), followed by an incubation at 4° C. for greater than 30 minutes. Total IPs are isolated from the lysate by ion exchange chromatography. Briefly, the lysed contents of the wells are transferred to a Multiscreen HV filter plate (Millipore) containing 100 μl Dowex AG1-X8 suspension (50% v/v, water:resin) (200-400 mesh, formate form). The filter plates are placed on a vacuum manifold to wash and elute the resin bed. Each well is first washed 2 times with 200 μl 5 mM myoinositol. Total [^3H]IPs are eluted with 75 μl of 1.2 M ammonium formate/0.1 M formic acid into Wallac 96-well plates. 200 μl of SuperMix scintillation cocktail is added to each well, mixed well, allowed to equilibrate and counted on a Micro Beta Trilux scintillation counter. (Note: The assay may be scaled to a 24 well format by simple adjustment of reagent volumes and employing individual chromatographic columns.)\nThe expression vector (pEXJ) containing the MCH1 cDNA was transfected by electroporation into Cos-7 cells in combination with an expression vector (pEXJ) containing the Gα16 subunit."}, "human MCH1 receptor [2]": {"biological_target": "T1, human MCH1 receptor", "assay": "Saturation and competition binding of [3H]Compound 10, membranes of Cos-7 cells transfected with MCH1", "design": "expressed in transfected cells; host or cells: COS-7", "conditions": "0.4 nM [3H]Compound 10; read-out: IC50, displacement of specific [3H]Compound 10 binding", "experimental": "Saturation equilibrium binding of [3H]Compound 10 to the human MCH1 receptor. Membrane preparations from Cos-7 cells transfected with MCH1 were incubated with varying concentrations of [3H]Compound 10 (SA: 56 Ci/mmol) at room temperature for 90 min, in a volume of 0.250 ml. The reaction was terminated by filtration in GF/C filters, and the radioactivity determined by scintillation counting. Non-specific binding was defined as the amount of radioactivity retained in the filter after incubating the reaction mixture in the presence of unlabeled Compound 10 ([…]).\nCompetition binding of [3H]Compound 10 to the human MCH1 receptor. […] The reaction was terminated by filtration in GF/C filters and the radioactivity bound to the membrane was determined by scintillation counting.\n[3H]Compound 10 was tested for its ability to bind to membrane preparations of cells expressing the human MCH1 receptor."}, "[3]": {"tested_on": "micturition reflex, anesthetized female Sprague Dawley rats", "assay": "Distension-induced rhythmic contraction (DIRC) model", "assay_type": "in vivo, rat", "design": "key: A = Produced a significant increase in contraction interval relative to pre-drug interval", "conditions": "contraction interval, i.v. or i.p.", "experimental": "The effects of compounds on the micturition reflex were assessed in the “distension-induced rhythmic contraction” (DIRC), as described in previous publications (e.g. Maggi et al, 1987; Morikawa et al, 1992), and Continuous Slow Transvesicular Infusion (CSTI) models in rats.\nFemale Sprague Dawley rats weighing approximately 300 g were anesthetized with subcutaneous urethane (1.2 g/kg). The trachea was cannulated with PE240 tubing to provide a clear airway throughout the experiment. A midline abdominal incision was made and the left and right ureters were isolated. The ureters were ligated distally (to prevent escape of fluids from the bladder) and cannulated proximally with PE10 tubing. The incision was closed using 4-0 silk sutures, leaving the PE10 lines routed to the exterior for the elimination of urine. The bladder was canulated via the transurethral route using PE50 tubing inserted 2.5 cm beyond the urethral opening. This cannula was secured to the tail using tape and connected to a pressure transducer. To prevent leakage from the bladder, the cannula was tied tightly to the exterior urethral opening using 4-0 silk.\nTo initiate the micturition reflex, the bladder was first emptied by applying pressure to the lower abdomen, and then filled with normal saline in […] (maximum 2 ml) until spontaneous bladder contractions occurred (typically 20-40 mmHg at a rate of one contraction every 2 to 3 minutes. Once a regular rhythm was established, vehicle (saline) or Test Compounds were administered i.v. or i.p. to explore their effects on bladder activity. The 5-HT1A antagonist WAY-100635 was given as a positive control. Data were expressed as contraction interval (in seconds) before drug application (basal), or after the application of vehicle or test article."}, "[4]": {"tested_on": "micturition reflex, conscious male Sprague Dawley rats", "assay": "Continuous Slow Transvesicular Infusion (CSTI) rat model", "assay_type": "in vivo", "design": "key to Effect of MCH1 antagonist in the CSTI model: B = Produced an increase in bladder capacity in rats relative to baseline capacity"}}, "data": [{"molecule": "COCC1=C(C(=O)OC)[C@H](c2ccc(F)c(F)c2)N(C(=O)NCCCN2CCC(c3cccc(NC(C)=O)c3)CC2)C(=O)N1", "note": "[Example 10, (+)-1,2,3,6-TETRAHYDRO-1-{N-[4-(3,-ACETAMIDO)-PHENYLPIPERIDIN-1-YL]PROPYL}CARBOXAMIDO-4-METHOXYMETHYL-6-(3,4-DIFLUORO-PHENYL)-2-OXOPYRIMIDINE-5-CARBOXYLIC ACID METHYL ESTER]", "values": [{"measurement": "slope of the Schild plot", "setting": "human MCH1 receptor [1]", "value": "0.97±0.2"}, {"measurement": "IC50", "setting": "human MCH1 receptor [2]", "value": 330, "unit": "pM"}, {"measurement": "Effect of MCH1 antagonist in the DIRC model", "setting": "[3]", "value": "A"}, {"measurement": "bladder capacity (% basal)", "setting": "[4]; 0.03 mg/kg, p.o., n=6 each, p<0.05", "value": "Significantly different from corresponding vehicle control"}, {"measurement": "Effect of MCH1 antagonist in the CSTI model", "setting": "[4]; bladder capacity, intragastric", "value": "B"}]}]}
